Assay results as given in patent US9630977B2, “Cephalosporin derivatives and pharmaceutical compositions thereof” (Legochem Biosciences, Inc., priority 2011, dated 2017).
In brackets after ≈: the same amount, converted by molar mass. Read-outs that look alike come from different tables or passages of the source.

Key:
A. baumannii 46 = experiment: In vitro antibacterial activity test (broth microdilution); assay type: cell-based; settings: Acinetobacter baumannii; A. baumannii 46; read-out: MIC90
Summary of the method: (§1)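 MIC90 (ug/mL) determined by CLSI broth microdilution against clinical isolates, defined as lowest concentration inhibiting visible growth of 90% of organisms after incubation versus untreated control. Compounds tested from 0.0626 to 128 ug/mL final, with 2.5% (V/V) DMSO.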

A. baumannii 49 = experiment: as above; assay type: cell-based; settings: Acinetobacter baumannii; A. baumannii 49; read-out: MIC90
Summary of the method: as §1

A. baumannii 52 = experiment: as above; assay type: cell-based; settings: Acinetobacter baumannii; A. baumannii 52; read-out: MIC90
Summary of the method: as §1

[1] = test system: A. calcoaceticus ATCC15473; experiment: as above; assay type: cell-based; settings: Acinetobacter calcoaceticus; A. calcoaceticus ATCC15473; read-out: MIC90
Summary of the method: as §1

E. cloacae β19 = experiment: as above; assay type: cell-based
Summary of the method: as §1

E. coli AG100 = experiment: as above; assay type: cell-based; settings: Escherichia coli, AG100, E. coli AG100; read-out: MIC90
Summary of the method: as §1

E. coli β4 = experiment: as above; assay type: cell-based; settings: Escherichia coli, read-out: MIC90
Summary of the method: as §1

K. pneumoniae 2011E = experiment: as above; assay type: cell-based; settings: Klebsiella pneumoniae, 2011E, K. pneumoniae 2011E; read-out: MIC90
Summary of the method: as §1

K. pneumoniae β10 = experiment: as above; assay type: cell-based; settings: Klebsiella pneumoniae; K. pneumoniae β10; read-out: MIC90
Summary of the method: as §1

K. pneumoniae β11 = experiment: as above; assay type: cell-based; settings: Klebsiella pneumoniae; K. pneumoniae β11; read-out: MIC90
Summary of the method: as §1

K. pneumoniae β13 = experiment: as above; assay type: cell-based; settings: K. pneumoniae β13
Summary of the method: as §1

K. pneumoniae β14 = experiment: as above; assay type: cell-based; settings: Klebsiella pneumoniae, read-out: MIC90
Summary of the method: as §1

K. pneumoniae β9 = experiment: as above; assay type: cell-based; settings: Klebsiella pneumoniae, K. pneumoniae β9; read-out: MIC90
Summary of the method: as §1

M. catarrhalis 2524 = experiment: as above; assay type: cell-based; settings: M. catarrhalis 2524
Summary of the method: as §1

P. aeruginosa 1912E = experiment: as above; assay type: cell-based
Summary of the method: as §1

P. aeruginosa 37 = experiment: as above; assay type: cell-based; settings: Pseudomonas aeruginosa, 37, P. aeruginosa 37; read-out: MIC90
Summary of the method: as §1

P. aeruginosa 40 = experiment: as above; assay type: cell-based; settings: Pseudomonas aeruginosa, 40, P. aeruginosa 40; read-out: MIC90
Summary of the method: as §1

P. aeruginosa 43 = experiment: as above; assay type: cell-based; settings: Pseudomonas aeruginosa; P. aeruginosa 43; read-out: MIC90
Summary of the method: as §1

P. aeruginosa 6065Y = experiment: as above; assay type: cell-based
Summary of the method: as §1

[2] = test system: A. baumannii (6 clinical isolates); experiment: Antibacterial activity on representative drug-resistance bacteria: number of clinical isolates per MIC value; assay type: cell-based; settings: A. baumanni (N = 6)
[3] = test system: K. pneumoniae (38 clinical isolates); experiment: as above; assay type: cell-based; settings: K. pneumomiae (N = 38)
[4] = test system: P. aeruginosa (16 clinical isolates); experiment: as above; assay type: cell-based; settings: P. aeruginosa (N = 16)
[5] = Pharmacokinetics study in rat, IV; assay type: in vivo, SD rat; settings: Rat (10 mg/kg) single IV; for AUC / Cmax / Tmax / clearance / half-life / Vd: SD, plasma; for Vd: read-out: Vss
Experimental: Test animals: 9 week old SD rat, weight 290˜310 g; 3 rats/sample time point
Lab conditions: Temperature of 21±2° C.; humidity of 50±20%
Administration method: Injecting test compound solution through tail vein (IV)
Test method: Blood samples were taken from jugular vein at a predetermined time period for 24 hours after administration, plasma was separated, and quantified by using LC-MS/MS.

19 clinical isolates = experiment: In vitro antibacterial activity test, panel of 19 clinical isolates as a whole; assay type: cell-based; settings: effect of a siderophore group, Table 1
Experimental: To evaluate antibacterial activity of each of the compounds of Examples 1 to 68, in vitro antibacterial activity test was performed.
The in vitro antibacterial activity was evaluated by measuring MIC90 (ug/mL) of each of the compounds of Examples 1 to 68, which is defined as the lowest concentration of an antibiotic that will inhibit the visible growth of 90% of microorganisms after incubation as compared with a control group to which the antibiotic is not treated. MIC90 values were measured by the broth microdilution method developed by the Clinical and Laboratory Standards Institute (CLSI) (see CLSI M7-A5, Methods for Dilution Antimicrobial Susceptibility Test for Bacteria that Grow Aerobically-Fifth Edition (2000): CLSI, Villanova, Pa.).
In vitro antibacterial activity was measured with respect to the following 19 clinical isolates: M. catarrhalis; P. aeruginosa (5 strains); K. pneumoniae (6 strains); A. baumannii (3 strains); E. coli (2 strains); A. calcoaceticus; and E. cloacae.
Test compounds each (the cephalosporin derivative compounds prepared in Examples 1 to 68) were dissolved in DMSO at the concentration of 10,240 ug/mL, were diluted by two fold with DMSO, and then were diluted by twenty fold with sterilized distilled water. The final concentration in the antibacterial activity test was in the range of […] to 128 ug/mL, and the final concentration of DMSO used as an adjuvant was 2.5% (V/V).

C[C@H](O/N=C(\C(=O)N[C@@H]1C(=O)N2C(C(=O)[O-])=C(C[n+]3cnc(N)c(NCCNC(=O)c4cc(=O)c(O)cn4O)c3)CSC12)c1nc(N)sc1Cl)C(=O)O (stereo partly shown) [Compound 4]
MIC90 (A. baumannii 46): 64 µg/mL (≈ 80.6 µM) | MIC90 (A. baumannii 49): 8 µg/mL (≈ 10.1 µM) | MIC90 (A. baumannii 52): 4 µg/mL (≈ 5.04 µM) | MIC90 [1]: 2 µg/mL (≈ 2.52 µM) | MIC90 (E. cloacae β19; Enterobacter cloacae, read-out: MIC90): 1 µg/mL (≈ 1.26 µM) | MIC90 (E. coli AG100): 0.125 µg/mL (≈ 0.157 µM) | MIC90 (E. coli β4): 0.5 µg/mL (≈ 0.63 µM) | MIC90 (K. pneumoniae 2011E): 2 µg/mL (≈ 2.52 µM) | MIC90 (K. pneumoniae β10): 0.5 µg/mL (≈ 0.63 µM) | MIC90 (K. pneumoniae β11): 4 µg/mL (≈ 5.04 µM) | MIC90 (K. pneumoniae β13; Klebsiella pneumoniae, read-out: MIC90): 1 µg/mL (≈ 1.26 µM) | MIC90 (K. pneumoniae β14): 32 µg/mL (≈ 40.3 µM) | MIC90 (K. pneumoniae β9): 0.5 µg/mL (≈ 0.63 µM) | MIC90 (M. catarrhalis 2524; Moraxella catarrhalis, read-out: MIC90): 0.25 µg/mL (≈ 0.315 µM) | MIC90 (P. aeruginosa 1912E; Pseudomonas aeruginosa, 1912E, read-out: MIC90): 0.5 µg/mL (≈ 0.63 µM) | MIC90 (P. aeruginosa 37): 0.5 µg/mL (≈ 0.63 µM) | MIC90 (P. aeruginosa 40): 1 µg/mL (≈ 1.26 µM) | MIC90 (P. aeruginosa 43): 1 µg/mL (≈ 1.26 µM) | MIC90 (P. aeruginosa 6065Y; Pseudomonas aeruginosa, read-out: MIC90): 0.5 µg/mL (≈ 0.63 µM) | number of clinical isolates that showed the respective MIC value ([2]; MIC 0.125 ug/mL): 1 | number of clinical isolates that showed the respective MIC value ([2]; MIC 2 ug/mL): 2 | number of clinical isolates that showed the respective MIC value ([2]; MIC >16 ug/mL): 3 | number of clinical isolates that showed the respective MIC value ([3]; MIC 0.25 ug/mL): 1 | number of clinical isolates that showed the respective MIC value ([3]; MIC 1 ug/mL): 1 | number of clinical isolates that showed the respective MIC value ([3]; MIC 2 ug/mL): 3 | number of clinical isolates that showed the respective MIC value ([3]; MIC 4 ug/mL): 2 | number of clinical isolates that showed the respective MIC value ([3]; MIC 8 ug/mL): 3 | number of clinical isolates that showed the respective MIC value ([3]; MIC 16 ug/mL): 2 | number of clinical isolates that showed the respective MIC value ([3]; MIC >16 ug/mL): 26 | number of clinical isolates that showed the respective MIC value ([4]; MIC 0.0625 ug/mL): 1 | number of clinical isolates that showed the respective MIC value ([4]; MIC 0.25 ug/mL): 5 | number of clinical isolates that showed the respective MIC value ([4]; MIC 0.5 ug/mL): 2 | number of clinical isolates that showed the respective MIC value ([4]; MIC 1 ug/mL): 1 | number of clinical isolates that showed the respective MIC value ([4]; MIC 2 ug/mL): 2 | number of clinical isolates that showed the respective MIC value ([4]; MIC 4 ug/mL): 1 | number of clinical isolates that showed the respective MIC value ([4]; MIC 8 ug/mL): 1 | number of clinical isolates that showed the respective MIC value ([4]; MIC >16 ug/mL): 3 | AUCnorm [5]: 4.03 kg·h/L | Cmax,norm [5]: 7.58 kg/L | AUC [5]: 40300 ng·h/mL | Cmax [5]: 75.8 µg/mL | Tmax [5]: 1.2 min | clearance [5]: 4.17 mL/min/kg | half-life [5]: 37.2 min | Vd [5]: 0.2 L/kg | antibacterial activity (in words) (19 clinical isolates): significantly improved

CC(C)(O/N=C(\C(=O)N[C@@H]1C(=O)N2C(C(=O)[O-])=C(/C=C/C[n+]3cnc(N)c(NCCNC(=O)c4cc(=O)c(O)cn4O)c3)CSC12)c1csc(N)n1)C(=O)O (stereo partly shown) [Compound 8]
MIC90 (A. baumannii 46): 8 µg/mL (≈ 10 µM) | MIC90 (A. baumannii 49): > 128 µg/mL | MIC90 (A. baumannii 52): > 128 µg/mL | MIC90 [1]: 2 µg/mL (≈ 2.5 µM) | MIC90 (E. cloacae β19): 32 µg/mL (≈ 40 µM) | MIC90 (E. coli AG100): 0.0625 µg/mL (≈ 0.0781 µM) | MIC90 (E. coli β4): 0.5 µg/mL (≈ 0.625 µM) | MIC90 (K. pneumoniae 2011E): 1 µg/mL (≈ 1.25 µM) | MIC90 (K. pneumoniae β10): < 0.0625 µg/mL | MIC90 (K. pneumoniae β11): 32 µg/mL (≈ 40 µM) | MIC90 (K. pneumoniae β13): 0.25 µg/mL (≈ 0.313 µM) | MIC90 (K. pneumoniae β14): 8 µg/mL (≈ 10 µM) | MIC90 (K. pneumoniae β9): 0.5 µg/mL (≈ 0.625 µM) | MIC90 (M. catarrhalis 2524): 0.5 µg/mL (≈ 0.625 µM) | MIC90 (P. aeruginosa 1912E): 1 µg/mL (≈ 1.25 µM) | MIC90 (P. aeruginosa 37): 1 µg/mL (≈ 1.25 µM) | MIC90 (P. aeruginosa 40): 0.5 µg/mL (≈ 0.625 µM) | MIC90 (P. aeruginosa 43): 1 µg/mL (≈ 1.25 µM) | MIC90 (P. aeruginosa 6065Y): 4 µg/mL (≈ 5 µM) | number of clinical isolates that showed the respective MIC value ([2]; MIC 0.5 ug/mL): 1 | number of clinical isolates that showed the respective MIC value ([2]; MIC >16 ug/mL): 5 | number of clinical isolates that showed the respective MIC value ([3]; MIC 0.25 ug/mL): 1 | number of clinical isolates that showed the respective MIC value ([3]; MIC 8 ug/mL): 1 | number of clinical isolates that showed the respective MIC value ([3]; MIC <0.0625 ug/mL): 1 | number of clinical isolates that showed the respective MIC value ([3]; MIC >16 ug/mL): 35 | number of clinical isolates that showed the respective MIC value ([4]; MIC 0.125 ug/mL): 2 | number of clinical isolates that showed the respective MIC value ([4]; MIC 0.25 ug/mL): 1 | number of clinical isolates that showed the respective MIC value ([4]; MIC 0.5 ug/mL): 2 | number of clinical isolates that showed the respective MIC value ([4]; MIC 1 ug/mL): 2 | number of clinical isolates that showed the respective MIC value ([4]; MIC 2 ug/mL): 2 | number of clinical isolates that showed the respective MIC value ([4]; MIC 4 ug/mL): 3 | number of clinical isolates that showed the respective MIC value ([4]; MIC 8 ug/mL): 1 | number of clinical isolates that showed the respective MIC value ([4]; MIC >16 ug/mL): 3 | AUCnorm [5]: 5.46 kg·h/L | Cmax,norm [5]: 19.61 kg/L | AUC [5]: 54600 ng·h/mL | Cmax [5]: 196 µg/mL | Tmax [5]: 1.2 min | clearance [5]: 3 mL/min/kg | half-life [5]: 52.2 min | Vd [5]: 0.09 L/kg | antibacterial activity (in words) (19 clinical isolates): significantly improved
